Measured values reported in patent publication US9616062B2, “Cyclin dependent kinase inhibitors and methods of use” (priority 2009, dated 2017).

Key:
[1] = test system: human peripheral blood T cells (memory and naive); test: Human peripheral blood T cell proliferation after PMA and ionomycin stimulation (BrdU, Ki-67 FACS); format: cell-based
Protocol: FIG. 13: CDK4/6 inhibitors suppress T cell proliferation upon stimulation through TCR pathway in both memory and naïve compartments. Human peripheral blood T cells were purified using Automacs by CD3 positive selection before being treated with CDK4/6 inhibitors and stimulated with PMA and Inomycin for 48 hrs. The proliferation of memory […] T cells after stimulation by PMA and Inomycin was measured by FACS staining of BrdU+ or Ki-67+ cells. The percentages of inhibition are shown, which indicates more inhibition of memory compartment than naïve compartment.
FIG. 14: CDK4/6 inhibitors suppress T cell proliferation upon stimulation through TCR pathway. […] Proliferation determined by BrdU or Ki67 incorporation. […]
FIG. 15: Changes of CD4 T cell composition after CDK4/6 inhibition. […] The memory and terminal differentiated T cell fractions as assessed by BrdU incorporation are reduced after CDK4/6 inhibition. […]
FIG. 16: Changes of CD4 T cell composition after CDK4/6 inhibition. […] The memory and terminal differentiated T cell fractions as assessed by Ki67 staining are reduced after CDK4/6 inhibition. […]
Similar results were seen using human lymphocytes. […] In FIG. 15, the effects of CDK4/6 inhibition on specific Tcell fractions is assessed, with and without TCR, showing CDK4/6 inhibition has a greater effect on proliferation of memory cells relative to naïve cells. […]

[2] = test system: murine splenic B and T cells; test: Splenic lymphocyte proliferation in mice (Ki67 or BrdU staining); format: in vivo, mouse; conditions: 24 hours treatment, unstimulated mice
Protocol: Animals were treated with CDK4/6 inhibitor (PD0332991, open bars) or vehicle (shaded bars) for 24 hours and euthanized. Splenocytes were isolated and stained for B and T cell markers. After gating on appropriate populations, Ki67 staining was performed as an indicator of proliferation and S-phase. Error bars show +/−SEM.
FIG. 22: CDK4/6 inhibitors block B-cell proliferation. Animals were treated with CDK4/6 inhibitor (150 mg/kg by daily oral gavage) or vehicle for 4 days, and BrdU in the drinking water for 3 days. After BrdU treatment, animals were euthanized. Splenocytes were isolated and stained for B cell markers. After gating on appropriate populations, BrdU staining was performed as an indicator of proliferation.
Cohorts of wild type mice were treated with vehicle or a CDK4/6 inhibitor as in FIG. 11. […] Unstimulated mice were treated for 24 hours with PD0332991 and homeostatic B cell proliferation measured by Ki67 staining after appropriate sorting. Similar results were obtained using BrdU incorporation to measure splenic B cell proliferation. Similar experiments were undertaken in human cells with B cell receptor stimulation as described in FIG. 12.

CC(=O)c1c(C)c2cnc(Nc3ccc(N4CCNCC4)cn3)nc2n(C2CCCC2)c1=O [PD0332991, 6-acetyl-8-cyclopentyl-5-methyl-2-(5-piperazin-1-yl-pyridin-2-ylamino)-8H-pyrido-[2,3-d]-pyrimidin-7-one]
proliferation of memory vs naive T cells (BrdU incorporation, Ki67 expression) [1]: more significant decrease in homeostatic proliferation of memory T cells than naive T cells | splenocyte B and T cell proliferation (Ki67 staining) [2]: blocks T and B cell proliferation
